These results are taken from patent US20260028365A1 (BIOGEN MA INC., priority 2022, published 2026).

One assay addresses JH2 domain of human Tyk2 (Homo sapiens (Human), UniProt P29597). The experiment in a line: JH2 Biochemical Assay (TR-FRET probe displacement). The class given is binding.
The next assay has as its target Tyk2 (Homo sapiens (Human), UniProt P29597). Description: pSTAT4 Cell Assay (MSD, NK92 cells). The class given is cell-based.
[1] abbreviates: TR-FRET probe displacement, JH2 domain.
Where [2] appears, read: TR-FRET probe displacement, JH2 domain of human Tyk2.
The mark [3] stands for this setting: JH2 domain of human Tyk2, TR-FRET probe displacement.

The structures appear in SMILES notation. Like-named read-outs stand apart in the source and are kept apart here.

Chain of Tyk2 (P29597 whole entry, the tested form may be a part): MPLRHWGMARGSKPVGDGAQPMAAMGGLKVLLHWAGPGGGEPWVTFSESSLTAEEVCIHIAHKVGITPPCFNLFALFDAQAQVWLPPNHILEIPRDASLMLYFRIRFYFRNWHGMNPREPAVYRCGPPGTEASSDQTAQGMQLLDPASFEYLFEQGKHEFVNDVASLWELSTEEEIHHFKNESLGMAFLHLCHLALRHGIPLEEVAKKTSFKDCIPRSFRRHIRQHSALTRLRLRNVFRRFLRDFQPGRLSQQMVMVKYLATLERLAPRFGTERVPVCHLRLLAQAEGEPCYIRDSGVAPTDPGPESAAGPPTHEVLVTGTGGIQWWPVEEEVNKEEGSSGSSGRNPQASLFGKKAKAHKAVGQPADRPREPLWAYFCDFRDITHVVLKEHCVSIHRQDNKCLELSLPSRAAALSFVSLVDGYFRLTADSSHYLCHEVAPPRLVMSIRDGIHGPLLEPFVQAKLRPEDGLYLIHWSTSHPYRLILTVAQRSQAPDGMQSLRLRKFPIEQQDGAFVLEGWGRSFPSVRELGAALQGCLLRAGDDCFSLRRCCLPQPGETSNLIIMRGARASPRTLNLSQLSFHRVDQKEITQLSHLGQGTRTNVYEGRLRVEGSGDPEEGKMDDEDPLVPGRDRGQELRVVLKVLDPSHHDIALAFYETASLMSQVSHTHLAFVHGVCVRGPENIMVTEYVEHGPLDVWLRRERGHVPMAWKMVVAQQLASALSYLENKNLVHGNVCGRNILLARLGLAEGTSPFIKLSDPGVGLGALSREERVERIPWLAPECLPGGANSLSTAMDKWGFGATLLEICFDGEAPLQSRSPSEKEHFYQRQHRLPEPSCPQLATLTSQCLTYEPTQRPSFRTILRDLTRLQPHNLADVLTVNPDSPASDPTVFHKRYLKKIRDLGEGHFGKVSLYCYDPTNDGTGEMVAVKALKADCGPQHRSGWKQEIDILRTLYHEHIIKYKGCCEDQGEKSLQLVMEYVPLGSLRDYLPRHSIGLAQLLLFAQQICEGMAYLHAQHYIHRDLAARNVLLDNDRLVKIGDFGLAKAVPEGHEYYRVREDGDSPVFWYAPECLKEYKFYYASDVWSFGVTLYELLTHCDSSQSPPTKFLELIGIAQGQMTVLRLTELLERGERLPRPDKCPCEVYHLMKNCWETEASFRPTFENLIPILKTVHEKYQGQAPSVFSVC
Chain of JH2 domain of human Tyk2 (P29597 575-876): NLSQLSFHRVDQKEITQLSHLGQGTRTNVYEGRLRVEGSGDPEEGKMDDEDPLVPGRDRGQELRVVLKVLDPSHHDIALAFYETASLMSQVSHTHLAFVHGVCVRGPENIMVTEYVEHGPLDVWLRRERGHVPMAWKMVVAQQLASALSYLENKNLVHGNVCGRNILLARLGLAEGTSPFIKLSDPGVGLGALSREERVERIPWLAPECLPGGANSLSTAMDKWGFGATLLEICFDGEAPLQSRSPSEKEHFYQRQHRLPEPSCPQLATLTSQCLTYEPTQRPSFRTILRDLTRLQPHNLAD

On to `CC(=O)Nc1cc(Nc2ccnc(C(C)(F)F)n2)c(-c2cnc(N3C[C@H]4C[C@@H]3CO4)cn2)cn1` [Example 871, N-(5-(5-((1R,4R)-2-oxa-5-azabicyclo[2.2.1]heptan-5-yl)pyrazin-2-yl)-4-((2-(1,1-difluoroethyl)pyrimidin-4-yl)amino)pyridin-2-yl)acetamide], for which the IC50 at JH2 domain of human Tyk2 (setting [1]) is at most 10 nM; on Tyk2, 10 to 100 nM.
Turning to `COC(C)COc1cnc(NC(C)=O)cc1Nc1cc(C)nc(C(C)(F)F)n1` (stereo not shown) [Example 60, N-(4-((2-(1,1-difluoroethyl)-6-methylpyrimidin-4-yl)amino)-5-(2-methoxypropoxy)pyridin-2-yl)acetamide], the figures for the half-maximal inhibitory concentration (IC50) on JH2 domain of human Tyk2 (setting [2]) and against Tyk2 (MSD) were at most 10 nM and 10 to 100 nM, respectively.
The matching figures for `CC(=O)Nc1cc(Nc2ccnc(C(C)(F)F)n2)c(-c2nnc(N3CCOCC3)s2)cn1` [Example 255, N-(4-((2-(1,1-difluoroethyl)pyrimidin-4-yl)amino)-5-(5-morpholino-1,3,4-thiadiazol-2-yl)pyridin-2-yl)acetamide]: at most 10 nM and at most 10 nM.
As to `CC(=O)Nc1cc(Nc2cc(C)nc(C(C)(F)F)n2)c(OCCc2cccnc2F)cn1` [Example 328, N-(4-((2-(1,1-difluoroethyl)-6-methylpyrimidin-4-yl)amino)-5-(2-(2-fluoropyridin-3-yl)ethoxy)pyridin-2-yl)acetamide], the IC50 at JH2 domain of human Tyk2 (setting [2]) and on Tyk2 (MSD) was at most 10 nM in each case.
Take `CC(=O)Nc1cc(Nc2cc(C)nc(C(C)(F)F)n2)c([C@@H]2C[C@@H]2C#N)cn1` (relative stereo) [Example 810, rel-N-(5-((1R,2S)-2-cyanocyclopropyl)-4-((2-(1,1-difluoroethyl)-6-methylpyrimidin-4-yl)amino)pyridin-2-yl)acetamide]: the concentration for half-maximal inhibition (IC50) was 10 to 100 nM on JH2 domain of human Tyk2 (setting [1]) and at least 1000 nM at Tyk2.
For the compound `CC(=O)Nc1cc(Nc2cc(C)nc(C(C)(F)F)n2)c(-c2csc(C(C)C)n2)cn1` [Example 612, N-(4-((2-(1,1-difluoroethyl)-6-methylpyrimidin-4-yl)amino)-5-(2-isopropylthiazol-4-yl)pyridin-2-yl)acetamide], the IC50 at JH2 domain of human Tyk2 (setting [3]) and at Tyk2 (MSD) was at most 10 nM in each case.
For the compound `CC(=O)Nc1cc(Nc2cc(C)nc(C(C)(F)F)n2)c(OCc2ncc(C)o2)cn1` [Example 341, N-(4-((2-(1,1-difluoroethyl)-6-methylpyrimidin-4-yl)amino)-5-((5-methyloxazol-2-yl)methoxy)pyridin-2-yl)acetamide], the IC50 at JH2 domain of human Tyk2 (setting [2]) is at most 10 nM; at Tyk2 (MSD), 10 to 100 nM.
On to `CCn1ccc(-c2cnc(NC(C)=O)cc2Nc2ccnc(C(C)(F)F)n2)n1` [Example 706, N-(4-((2-(1,1-difluoroethyl)pyrimidin-4-yl)amino)-5-(1-ethyl-1H-pyrazol-3-yl)pyridin-2-yl)acetamide], for which the half-maximal inhibitory concentration (IC50) on JH2 domain of human Tyk2 (setting [3]) and against Tyk2 (MSD) was at most 10 nM in each case.
For the compound `COC1CCN(Cc2ccc(-c3cnc(NC(C)=O)cc3Nc3ccnc(C(C)(F)F)n3)nc2)C1` (stereo not shown) [Example 881, N-(4′-((2-(1,1-difluoroethyl)pyrimidin-4-yl)amino)-5-((3-methoxypyrrolidin-1-yl)methyl)-[2,3′-bipyridin]-6′-yl)acetamide], the IC50 at JH2 domain of human Tyk2 (setting [1]) and against Tyk2 was at most 10 nM in each case.
For the compound `COc1cnc(NC(C)=O)cc1Nc1ccnc(C2CCOC2)n1` (stereo not shown) [Example 450, N-(5-methoxy-4-((2-(tetrahydrofuran-3-yl)pyrimidin-4-yl)amino)pyridin-2-yl)acetamide], the half-inhibitory concentration (IC50) on JH2 domain of human Tyk2 (setting [3]) was 10 to 100 nM; against Tyk2 (MSD) it was at least 1000 nM.
In the same order, the values of `COc1cnc(NC(C)=O)cc1Nc1cc(-c2cc(C#N)c3nc(C)cn3c2)nc(C(C)(F)F)n1` [Example 402, N-(4-((6-(8-cyano-2-methylimidazo[1,2-a]pyridin-6-yl)-2-(1,1-difluoroethyl)pyrimidin-4-yl)amino)-5-methoxypyridin-2-yl)acetamide] are 10 to 100 nM and 100 to 1000 nM.
Turning to `CCc1cc(-c2cnc(NC(C)=O)cc2Nc2cc(C)nc(C(C)(F)F)n2)ncn1` [Example 244, N-(4-((2-(1,1-difluoroethyl)-6-methylpyrimidin-4-yl)amino)-5-(6-ethylpyrimidin-4-yl)pyridin-2-yl)acetamide], the IC50 on JH2 domain of human Tyk2 (setting [2]) is at most 10 nM; against Tyk2 (MSD) it was 10 to 100 nM.
As to `CC(=O)Nc1cc(Nc2cc(C)nc(C(C)(F)F)n2)c(-c2ccc([C@H]3CN(C)CCO3)cn2)cn1` (single isomer, unassigned) [Example 644, (S)-N-(4′-((2-(1,1-difluoroethyl)-6-methylpyrimidin-4-yl)amino)-5-(4-methylmorpholin-2-yl)-[2,3′-bipyridin]-6′-yl)acetamide or (R)-N-(4′-((2-(1,1-difluoroethyl)-6-methylpyrimidin-4-yl)amino)-5-(4-methylmorpholin-2-yl)-[2,3′-bipyridin]-6′-yl)acetamide], the IC50 at JH2 domain of human Tyk2 (setting [3]) and on Tyk2 (MSD) was at most 10 nM each time.
For `CC(=O)Nc1cc(Nc2ccnc(C(C)(F)F)n2)c(-c2csc(C#N)n2)cn1` [Example 790, N-(5-(2-cyanothiazol-4-yl)-4-((2-(1,1-difluoroethyl)pyrimidin-4-yl)amino)pyridin-2-yl)acetamide], the IC50 on JH2 domain of human Tyk2 (setting [1]) and against Tyk2 was at most 10 nM each time.
With `CC(=O)Nc1cc(Nc2cc(C(C)C)nc(C(C)(F)F)n2)c(OCc2ccccn2)cn1` [Example 365, N-(4-((2-(1,1-difluoroethyl)-6-isopropylpyrimidin-4-yl)amino)-5-(pyridin-2-ylmethoxy)pyridin-2-yl)acetamide], the IC50 at JH2 domain of human Tyk2 (setting [2]) and on Tyk2 (MSD) was at most 10 nM each time.
On to `CC(=O)Nc1cc(Nc2cc(C)nc(C(C)(F)F)n2)c(OCCOC(C)C)cn1` [Example 482, N-(4-((2-(1,1-difluoroethyl)-6-methylpyrimidin-4-yl)amino)-5-(2-isopropoxyethoxy)pyridin-2-yl)acetamide], for which the IC50 is at most 10 nM at JH2 domain of human Tyk2 (setting [3]) and 10 to 100 nM against Tyk2 (MSD).
The matching figures for `CC(=O)Nc1cc(Nc2cc(C)nc(C(C)(F)F)n2)c(OC[C@]23C[C@](C)(CO2)C3)cn1` [Example 514, N-(4-((2-(1,1-difluoroethyl)-6-methylpyrimidin-4-yl)amino)-5-(((1s,4s)-4-methyl-2-oxabicyclo[2.1.1]hexan-1-yl)methoxy)pyridin-2-yl)acetamide]: at most 10 nM and at most 10 nM.
For `CC(=O)Nc1cc(Nc2cc(C)nc(C(C)(F)F)n2)c(OCc2conc2C)cn1` [Example 335, N-(4-((2-(1,1-difluoroethyl)-6-methylpyrimidin-4-yl)amino)-5-((3-methylisoxazol-4-yl)methoxy)pyridin-2-yl)acetamide], the results for the IC50 at JH2 domain of human Tyk2 (setting [2]) and against Tyk2 (MSD) were at most 10 nM and 100 to 1000 nM, respectively.
The matching figures for `CC(=O)Nc1cc(Nc2cc(C)nc(C(C)(F)F)n2)c(OC(C)C2CC2)cn1` (stereo not shown) [Example 83, N-(5-(1-cyclopropylethoxy)-4-((2-(1,1-difluoroethyl)-6-methylpyrimidin-4-yl)amino)pyridin-2-yl)acetamide]: at most 10 nM and 100 to 1000 nM.
With `CC(=O)Nc1cc(Nc2cc(C)nc(C(C)(F)F)n2)c(-c2ccnc(C(C)(F)F)n2)cn1` [Example 837, N-(4-((2-(1,1-difluoroethyl)-6-methylpyrimidin-4-yl)amino)-5-(2-(1,1-difluoroethyl)pyrimidin-4-yl)pyridin-2-yl)acetamide], the IC50 at JH2 domain of human Tyk2 (setting [1]) and on Tyk2 was at most 10 nM each time.
